Measured values: patent US8378104B2 (OSI Pharmaceuticals, LLC, priority 2010, dated 2013)

Assays:
[1] = tested on: pJNK in HCT-116 cells; assay: Phospho-JNK (Thr183/Tyr185) Meso Scale ELISA assay, TNFα-stimulated HCT-116 cells; assay type: cell-based; settings: Homo sapiens, read-out: mean HCT-116 pJNK ELISA IC50 (Col. B)
Procedure, shortened: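 HCT-116 cells in 1% FCS medium were pretreated with compound for 4 hrs at 37° C, then stimulated with TNFα at 10 ng/mL final for 10 minutes. Lysates were taken in ice-cold lysis buffer with phosphatase and protease inhibitors, and phospho-JNK (Thr183/Tyr185) was measured by Meso Scale ELISA.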

[2] = target: T1, TAK1-TAB1 fusion protein (Homo sapiens, UniProt O43318); assay: TAK1 biochemical assay (AlphaScreen, GST-MAP2K7 substrate); settings: TAK1-TAB1 fusion protein, GST-MAP2K7 substrate; read-out: mean TAK1 IC50 (Col. A)
T1 construct: purchased Carna
T1 sequence (O43318 with tags, fused parts or gaps limits assumed): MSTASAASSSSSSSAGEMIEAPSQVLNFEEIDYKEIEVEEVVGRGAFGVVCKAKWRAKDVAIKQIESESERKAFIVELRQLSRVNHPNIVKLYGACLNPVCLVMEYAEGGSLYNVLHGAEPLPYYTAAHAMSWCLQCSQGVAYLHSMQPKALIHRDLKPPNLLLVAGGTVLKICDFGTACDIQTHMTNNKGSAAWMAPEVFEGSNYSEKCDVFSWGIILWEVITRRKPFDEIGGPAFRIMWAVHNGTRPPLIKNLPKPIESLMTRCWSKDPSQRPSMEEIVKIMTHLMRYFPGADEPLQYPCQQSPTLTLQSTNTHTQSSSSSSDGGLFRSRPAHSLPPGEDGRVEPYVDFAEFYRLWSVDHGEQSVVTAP

[3] = tested on: p-p38 in HCT-116 cells; assay: Phospho-p38 Meso Scale ELISA assay, TNFα-stimulated HCT-116 cells; assay type: cell-based; settings: Homo sapiens, read-out: mean HCT-116 p-p38 ELISA IC50 (Col. C)
Method: Detailed below are ELISA assays for pJNK and p38, and a TAK1 biochemical assay. […] In Table 1, Col.
• 1. Plate HCT-116 cells at 25,000 per well in 100 uL in 96 well clear dishes in normal growth medium. Day 2: • 1. Aspirate medium and replace with 90 μl reduced serum growth medium (1% FCS), incubate for 2 hours at 37° C. • 2. Make drugs at 10× in reduced serum medium and add 10 uL per well. • 3. Incubate at 37° C. for 4 hrs. • 4. Bring capture plates to room temperature. • 5. Block with 150 μl Blocking Solution (provided with kit) (600 mg Blocker A into 20 mL 1× Wash Buffer per plate) at room temperature with shaking. • 6. Wash plates 4× with 200 μl 1× wash buffer (10× provided with kit) before transferring lysates. • 7. Dilute TNFα to […] in reduced serum medium (this makes a 10× working stock). • 8. Add 10 μl TNFα to all wells except negative control wells, final concentration is 10 ng/mL. • 9. Incubate at 37° C. for 10 minutes. • 10. Remove medium by flicking into sink • 11. Wash cells with 100 uL ice cold PBS. • 12. Remove PBS by flicking into sink and patting on paper towels. • 13. Lyse cells in 50 μl ice cold 1× Complete Lysis Buffer plus Phosphatase and Protease inhibitors (all provided with kit) (10 mL Tris Lysis Buffer+200 μl Protease inhibitor solution+100 μl Phosphatase inhibitor I+100 μl Phosphatase inhibitor II). • 14. Incubate with shaking at 4° C. for 30 minutes. • 15. Transfer 45 μl to capture plate, cover with adhesive cover, and incubate at 4° C. over night with shaking. • Day 3: • 1. Wash plates 4× with 200 μl 1× wash buffer (10× provided with kit). • 2. […] Incubate at room temperature with shaking for 1 hour. • 4. Wash 4× with 200 μl 1× Wash Buffer. • 5. […] Read on Sector Imager. Phospho-p38 Meso Scale ELISA Assay Day 1: • 1. Plate HCT-116 cells at 25,000 per well in 100 uL in 96 well clear dishes in normal growth medium. zday 2: • 1. Aspirate medium and replace with 90 μl reduced serum growth medium (1% FCS), incubate for 2 hours at 37° C. • 2. Make drugs at 10× in reduced serum medium and add 10 uL per well. • 3. Incubate at 37° C. for 4 hrs. • 4. Bring capture plates to room temperature. • 5. Block with 150 μl Blocking Solution (provided with kit) (600 mg Blocker A into 20 mL 1× Wash Buffer per plate) at room temperature with shaking. • 6. Wash plates 4× with 200 μl 1× wash buffer (10× provided with kit) before transferring lysates. • 7. Dilute TNFα to […] in reduced serum medium (this makes a 10× working stock). • 8. Add 10 μl TNFα to all wells except negative control wells, final concentration is 10 ng/mL. • 9. Incubate at 37° C. for 10 minutes. • 10. Remove medium by flicking into sink • 11. Wash cells with 100 uL ice cold PBS. • 12. Remove PBS by flicking into sink and patting on paper towels. • 13. Lyse cells in 50 μl ice cold 1× Complete Lysis Buffer plus phosphatase and protease inhibitors (all provided with kit) (10 mL Tris Lysis Buffer+200 μl Protease inhibitor solution+100 μl Phosphatase inhibitor I+100 μl Phosphatase inhibitor II). • 14. Incubate with shaking at 4° C. for 30 minutes. • 15. Dilute lysates before transferring to capture plate with 100 μl Complete p38 Lysate • Dilution Buffer (provided with kit) (10 mL of Diluent 20±200 μl Protease inhibitor solution+100 μl Phosphatase inhibitor I+100 μl Phosphatase inhibitor II). • 16. Transfer 50 μl of diluted lysates to capture plate, cover with adhesive cover, and incubate at 4° C. over night with shaking. Day 3: • 1. Wash plates 4× with 200 μl 1× wash buffer (10× provided with kit). • 2. […] Incubate at room temperature with shaking for 1 hour. • 4. Wash 4× with 200 μl 1× Wash Buffer. • 5. […] Read on Sector Imager. TAK1 Biochemical Assay

Structure (SMILES) | IC50 [1] [nM] | IC50 [2] [nM] | IC50 [3] [nM]
CC(=O)N1CCC(n2cc(-c3cnc(N)c4oc(-c5cccc6ccccc56)cc34)cn2)CC1 [Example 105, 1-(4-{4-[7-amino-2-(naphthalen-1-yl)furo[2,3-c]pyridin-4-yl]-1H-pyrazol-1-yl}piperidin-1-yl)ethanone] | 1000 to 10000 | 100 to 1000 | 1000 to 10000
CC(=O)N1CCC(n2cc(-c3cnc(N)c4oc(-c5ccc6ncn(C)c6c5)cc34)cn2)CC1 [Example 111, 1-(4-{4-[7-amino-2-(1-methyl-1H-benzimidazol-6-yl)furo[2,3-c]pyridin-4-yl]-1H-pyrazol-1-yl}piperidin-1-yl)ethanone] | 1000 to 10000 | 100 to 1000 | > 10000
CSc1ccc(-c2cc3c(-c4cnn(C5CCN(C(C)=O)CC5)c4)cnc(N)c3o2)cc1 [Example 113, 1-[4-(4-{7-amino-2-[4-(methylsulfanyl)phenyl]furo[2,3-c]pyridin-4-yl}-1H-pyrazol-1-yl)piperidin-1-yl]ethanone] | 1000 to 10000 | > 10000 | 1000 to 10000
CC(=O)N1CCC(n2cc(-c3cnc(N)c4oc(-c5cn[nH]c5)cc34)cn2)CC1 [Example 115, 1-(4-{4-[7-amino-2-(1H-pyrazol-4-yl)furo[2,3-c]pyridin-4-yl]-1H-pyrazol-1-yl}piperidin-1-yl)ethanone] | 1000 to 10000 | 100 to 1000 | > 10000
CC(=O)N1CCC(n2cc(-c3cnc(N)c4oc(-c5ccc6c(c5)OCO6)cc34)cn2)CC1 [Example 117, 1-(4-{4-[7-amino-2-(1,3-benzodioxol-5-yl)furo[2,3-c]pyridin-4-yl]-1H-pyrazol-1-yl}piperidin-1-yl)ethanone] | 1000 to 10000 | 1000 to 10000 | 1000 to 10000
CC(=O)N1CCC(n2cc(-c3cnc(N)c4oc(-c5ccc(O)c(F)c5)cc34)cn2)CC1 [Example 123, 1-(4-{4-[7-amino-2-(3-fluoro-4-hydroxyphenyl)furo[2,3-c]pyridin-4-yl]-1H-pyrazol-1-yl}piperidin-1-yl)ethanone] | 1000 to 10000 | 100 to 1000 | 1000 to 10000
CC(=O)c1cccc(-c2cc3c(-c4cnn(C5CCN(C(C)=O)CC5)c4)cnc(N)c3o2)c1 [Example 124, 1-(4-{4-[2-(3-acetylphenyl)-7-aminofuro[2,3-c]pyridin-4-yl]-1H-pyrazol-1-yl}piperidin-1-yl)ethanone] | 100 to 1000 | 1000 to 10000 | 1000 to 10000
CC(=O)N1CCC(n2cc(-c3cnc(N)c4oc(-c5ccc(S(C)(=O)=O)cc5)cc34)cn2)CC1 [Example 129, 1-[4-(4-{7-amino-2-[4-(methylsulfonyl)phenyl]furo[2,3-c]pyridin-4-yl}-1H-pyrazol-1-yl)piperidin-1-yl]ethanone] | > 10000 | > 10000 | > 10000
COc1cc(-c2cc3c(-c4cnn(C5CCN(C(C)=O)CC5)c4)cnc(N)c3o2)ccc1O [Example 131, 1-(4-{4-[7-amino-2-(4-hydroxy-3-methoxyphenyl)furo[2,3-c]pyridin-4-yl]-1H-pyrazol-1-yl}piperidin-1-yl)ethanone] | 100 to 1000 | 100 to 1000 | 1000 to 10000
CC(=O)N1CCC(n2cc(-c3cnc(N)c4oc(-c5cccc(O)c5)cc34)cn2)CC1 [Example 132, 1-(4-{4-[7-amino-2-(3-hydroxyphenyl)furo[2,3-c]pyridin-4-yl]-1H-pyrazol-1-yl}piperidin-1-yl)ethanone] | 100 to 1000 | < 100 | 100 to 1000
CSc1cccc(-c2cc3c(-c4cnn(C5CCN(C(C)=O)CC5)c4)cnc(N)c3o2)c1 [Example 133, 1-[4-(4-{7-amino-2-[3-(methylsulfanyl)phenyl]furo[2,3-c]pyridin-4-yl}-1H-pyrazol-1-yl)piperidin-1-yl]ethanone] | 1000 to 10000 | 1000 to 10000 | 1000 to 10000

Results, then the compound that gave them:

IC50 [1] [nM] | IC50 [2] [nM] | IC50 [3] [nM] | Structure (SMILES)
100 to 1000 | 100 to 1000 | 100 to 1000 | CC(=O)N1CCC(n2cc(-c3cnc(N)c4oc(-c5ccc6sccc6c5)cc34)cn2)CC1 [Example 106, 1-(4-{4-[7-amino-2-(1-benzothiophen-5-yl)furo[2,3-c]pyridin-4-yl]-1H-pyrazol-1-yl}piperidin-1-yl)ethanone]
100 to 1000 | 100 to 1000 | 100 to 1000 | CC(=O)N1CCC(n2cc(-c3cnc(N)c4oc(-c5ccc6scnc6c5)cc34)cn2)CC1 [Example 107, 1-(4-{4-[7-amino-2-(1,3-benzothiazol-5-yl)furo[2,3-c]pyridin-4-yl]-1H-pyrazol-1-yl}piperidin-1-yl)ethanone]
100 to 1000 | 100 to 1000 | < 100 | CC(=O)N1CCC(n2cc(-c3cnc(N)c4oc(-c5ccc6c(c5)CCO6)cc34)cn2)CC1 [Example 108, 1-(4-{4-[7-amino-2-(2,3-dihydro-1-benzofuran-5-yl)furo[2,3-c]pyridin-4-yl]-1H-pyrazol-1-yl}piperidin-1-yl)ethanone]
100 to 1000 | 100 to 1000 | 1000 to 10000 | CC(=O)N1CCC(n2cc(-c3cnc(N)c4oc(-c5scc6c5OCCO6)cc34)cn2)CC1 [Example 109, 1-(4-{4-[7-amino-2-(2,3-dihydrothieno[3,4-b][1,4]dioxin-5-yl)furo[2,3-c]pyridin-4-yl]-1H-pyrazol-1-yl}piperidin-1-yl)ethanone]
100 to 1000 | < 100 | 100 to 1000 | CC(=O)N1CCC(n2cc(-c3cnc(N)c4oc(-c5cccc([N+](=O)[O-])c5)cc34)cn2)CC1 [Example 112, 1-(4-{4-[7-amino-2-(3-nitrophenyl)furo[2,3-c]pyridin-4-yl]-1H-pyrazol-1-yl}piperidin-1-yl)ethanone]
100 to 1000 | 1000 to 10000 | 100 to 1000 | CC(=O)N1CCC(n2cc(-c3cnc(N)c4oc(-c5ccc6occc6c5)cc34)cn2)CC1 [Example 114, 1-(4-{4-[7-amino-2-(1-benzofuran-5-yl)furo[2,3-c]pyridin-4-yl]-1H-pyrazol-1-yl)piperidin-1-yl]ethanone]
100 to 1000 | 100 to 1000 | 100 to 1000 | CC(=O)N1CCC(n2cc(-c3cnc(N)c4oc(-c5ccc(O)cc5)cc34)cn2)CC1 [Example 120, 1-(4-{4-[7-amino-2-(4-hydroxyphenyl)furo[2,3-c]pyridin-4-yl]-1H-pyrazol-1-yl}piperidin-1-yl)ethanone]
